Active and inactive are the calls of the source. No cut-off for these calls is given here.

In data set [1] the test system is Plasmodium falciparum. Nature of the data set: Antiplasmodial activity against chloroquine, pyrimethamine and mefloquine-resistant asexual blood stage of Plasmodium falciparum Dd2 assessed as reduction in parasite growth after 72 hrs by SYBR green I staining based fluorescence assay. The data set is classed as functional, organism-based. To be noted: Dd2, 72 h.

Data set [2] deals with Plasmodium falciparum. Nature of the data set: Antiplasmodial activity against chloroquine, pyrimethamine and mefloquine-sensitive asexual blood stage of Plasmodium falciparum 3D7 assessed as reduction in parasite growth after 72 hrs by SYBR green I staining based fluorescence assay. It counts as functional, organism-based. To be noted: 3D7, 72 h.
Data set [3] can be described thus: Oral bioavailability in rat. To be noted: in vivo. It counts as ADME, organism-based.
Data set [4] is described as follows: Stability in mouse hepatocyte assessed as half life measured after 120 mins by LC-MS analysis. The data set is classed as ADME, tissue-based. To be noted: hepatocytes.
Data set [5] is described as follows: Partition coefficient, logD between 1-octanol and pH 7.4 PBS by LC-MS analysis. It counts as physicochemical. To be noted: 1-octanol/PBS.
Data set [6] can be described thus: Solubility of the compound in pH 7.4 PBS buffer by LC-MS analysis. The data set is classed as physicochemical.
For another data set, the system named is Escherichia coli. Nature of the data set: Antibacterial activity against Escherichia coli BL21 (DE3) cells assessed as inhibition of bacterial growth measured after 18 hrs measured by cell density meter. It counts as functional.
Data set [7] can be described thus: Cytotoxicity against human primary hepatocytes assessed as reduction in cell viability incubated for 24 hrs by DAPI staining based fluorescence assay. On the set-up: species or system Hepatocyte.
Data set [8] can be described thus: Stability in CD-1 mouse liver microsomes assessed as half life measured after 60 mins in presence of NADPH LC-MS analysis. It counts as ADME, Microsome. Background: Microsomes from liver hold many membrane-bound enzymes, among them those of drug oxidation.
Data set [9] is described as follows: Half life in rat plasma at 40 mg/kg, po. It counts as ADME, organism-based.
For another data set, the system named is Plasmodium berghei. Nature of the data set: In vivo antimalarial activity against blood stage transgenic Plasmodium berghei ANKA strain (PbGFP-Luccon) infected in swiss Webster mouse assessed as supression of parasitemia at 40 mg/kg, po administered once daily starting from day 2 to 6 post infection and measured at day 7 by luciferase substrate based imaging analysis. It counts as functional, organism-based. To be noted: time 5.0 day.

Data set [10] in a line: AUC(0 to 24) in rat at 40 mg/kg, po. The data set is classed as ADME, organism-based. On the set-up: time < 24 hr, route oral, dose 40 mg/kg. To be noted: in vivo.
Data set [11] is described as follows: Stability in CD-1 mouse plasma measured after 60 mins LC-MS analysis. To be noted: read-out: Stability. The data set is classed as ADME, cell-free.
Data set [12] is described as follows: Cytotoxicity against human HEK293 cells assessed as reduction in cell viability incubated for 24 hrs by resazurin dye based fluorescence assay. A general note: Alamar Blue is a resazurin reagent that responds to reducing activity.
Data set [13] can be described thus: Plasma protein binding in CD-1 mouse at 1 to 10 uM by LC-MS analysis. The data set is classed as ADME, cell-free. To be noted: dose 1-10 µM, read-out: PPB.

For the compound `O=C(c1ccccc1)N1CCc2c([nH]c3ccccc23)C1c1ccc(Cl)cc1` (racemic), in the data set with Plasmodium falciparum [1], the EC50 (in general, the concentration needed to bring the measured effect to its halfway point) worked out at 2500 nM.

As for `O=C(c1cc2cc(Br)ccc2o1)N1CCc2c([nH]c3ccccc23)[C@H]1c1ccc(F)cc1`, in the data set with Plasmodium falciparum [1], the EC50 came out at 211 nM.

In the case of `CCOc1ccc([C@@H]2c3[nH]c4ccccc4c3CCN2C(=O)c2cc3ccccc3o2)cc1`, the EC50 in the data set with Plasmodium falciparum [1] stood at 1250 nM.

Turning to `CC(=O)N1CCc2c([nH]c3ccccc23)C1c1ccc(Cl)cc1` (racemic), the half-maximal effective concentration (EC50) with Plasmodium falciparum [1] is 2500 nM.

For `CCOc1ccc([C@@H]2c3[nH]c4ccccc4c3CCN2C(=O)c2cc3cc(Br)ccc3o2)cc1`, the results for the EC50 in the data set on Plasmodium falciparum [1] and in the data set on Plasmodium falciparum [2] were 138 nM and 120 nM, respectively.

Turning to `O=C(c1cc2cc(Br)ccc2o1)N1CCc2c([nH]c3ccccc23)C1c1ccc(Cl)cc1` (racemic), the EC50 in the data set on Plasmodium falciparum [1] stood at 185 nM.

As for `Clc1ccc(C2NCCc3c2[nH]c2ccccc32)cc1` (racemic), the EC50 in the data set on Plasmodium falciparum [1] worked out at 5000 nM.

On to `O=C(c1cc2cc(Cl)ccc2o1)N1CCc2c([nH]c3ccccc23)[C@H]1c1ccc(F)cc1`, for which the EC50 with Plasmodium falciparum [1] came out at 143 nM.

As for `O=C(c1cc2cc(Cl)ccc2[nH]1)N1CCc2c([nH]c3ccccc23)[C@H]1c1ccc(Cl)cc1`, the EC50 in the data set with Plasmodium falciparum [1] is 1250 nM.

For `O=C(c1cc2cc(Br)ccc2o1)N1CCc2c([nH]c3ccccc23)[C@H]1c1ccc(Cl)cc1`, the half-maximal effective concentration (EC50) in the data set on Plasmodium falciparum [1] stood at 155 nM; with Plasmodium falciparum [2], 180 nM. Moreover, the bioavailability – broadly, dose-corrected exposure relative to a reference, in per cent – in [3] was found to be 11%. Besides, the half-life (in general, how long it takes for the measured level to halve) in [4] is 175 min; in data set [8] it was 79 min; in [9] it was 480 min. In addition, the logD (usually the decadic logarithm of the distribution of all forms, ionised or not, between an organic phase and buffer at a given pH) in data set [5] is more than 5. The solubility (as a rule, the concentration that dissolves in the medium under given conditions) in data set [6] is less than 44 nM. In addition, in the data set with Escherichia coli, the MIC – broadly, the least concentration at which growth counts as inhibited – is more than 25 µM. Moreover, the CC50 (commonly the concentration that lowers cell viability or growth by half) at 24 h in data set [7] is more than 10 µM; in data set [12], more than 50 µM. Also, the result in the data set with Plasmodium berghei was inactive. In addition, the area under the curve (AUC) (as a rule, the area under the concentration-time curve, a measure of exposure) at 24 h in data set [10] turned out to be 28200 ng·h/mL. Also, the remaining at 1 h in data set [11] amounted to 100%. Moreover, in data set [13], the fraction unbound at up to 10 µM is less than 0.001.

Regarding `O=C(c1cc2ccccc2o1)N1CCc2c([nH]c3ccccc23)[C@H]1c1ccc(Cl)cc1`, in the data set on Plasmodium falciparum [1], the concentration giving a half-maximal response (EC50) was determined as 1250 nM.

Turning to `CCOc1ccc([C@@H]2c3[nH]c4ccccc4c3CCN2C(=O)c2nc3cc(Br)ccc3[nH]2)cc1`, the EC50 in the data set on Plasmodium falciparum [1] stood at 625 nM.

In the case of `CCOc1ccc([C@@H]2c3[nH]c4ccccc4c3CCN2C(=O)c2cc3cc(Cl)ccc3[nH]2)cc1`, in the data set on Plasmodium falciparum [1], the EC50 was found to be 1250 nM.

Regarding `O=C(c1cc2cc(Br)ccc2o1)N1CCc2c([nH]c3ccccc23)[C@H]1c1ccc(Br)cc1`, the EC50 in the data set with Plasmodium falciparum [1] worked out at 239 nM.

On to `CCN(CC)CCCC(C)Nc1ccnc2cc(Cl)ccc12` (stereo not drawn) [CHLOROQUINE], for which the figures for the EC50 with Plasmodium falciparum [1] and in the data set with Plasmodium falciparum [2] were 319 nM and 7 nM, respectively. The result with Plasmodium berghei was Active.

With `O=C(c1cc2cc(Br)ccc2o1)N1CCc2c([nH]c3ccccc23)[C@H]1c1ccccc1`, the EC50 in the data set on Plasmodium falciparum [1] amounted to 452 nM.

For the compound `O=C(c1cc2cc(Cl)ccc2o1)N1CCc2c([nH]c3ccccc23)[C@H]1c1ccc(Br)cc1`, the EC50 with Plasmodium falciparum [1] is 194 nM.

Regarding `CCOc1ccc([C@@H]2c3[nH]c4ccccc4c3CCN2C(=O)c2cc3cc(Cl)ccc3o2)cc1`, the EC50 with Plasmodium falciparum [1] came out at 129 nM; in the data set with Plasmodium falciparum [2] it was 175 nM.

As to `N#Cc1ccc([C@@H]2c3[nH]c4ccccc4c3CCN2C(=O)c2cc3cc(Br)ccc3o2)cc1`, the EC50 with Plasmodium falciparum [1] turned out to be 216 nM.

Turning to `CCOc1ccc([C@H]2c3[nH]c4ccccc4c3CCN2C(=O)c2cc3cc(Br)ccc3o2)cc1`, the EC50 with Plasmodium falciparum [1] was 625 nM.

Take `Cc1ccc2oc(C(=O)N3CCc4c([nH]c5ccccc45)[C@H]3c3ccc(Cl)cc3)cc2c1`: the EC50 with Plasmodium falciparum [1] amounted to 198 nM.

`O=C(CCC1CCCC1)N1CCc2c([nH]c3ccccc23)C1c1ccc(Cl)cc1` (racemic): the EC50 in the data set with Plasmodium falciparum [1] was determined as 726 nM.

Consider `O=C(c1ccc(Br)cc1)N1CCc2c([nH]c3ccccc23)C1c1ccc(Cl)cc1` (racemic), for which, in the data set with Plasmodium falciparum [1], the EC50 was 682 nM.

As to `O=C(c1cc2cc(Br)ccc2o1)N1CCc2c([nH]c3ccccc23)[C@@H]1c1ccc(Cl)cc1`, the EC50 came out at 28 nM in the data set with Plasmodium falciparum [1] and 15 nM with Plasmodium falciparum [2].

In the case of `O=C(c1ccc(Cl)c(Cl)c1)N1CCc2c([nH]c3ccccc23)C1c1ccc(Cl)cc1` (racemic), the EC50 in the data set with Plasmodium falciparum [1] worked out at 1240 nM.

Turning to `COc1ccc(C(=O)N2CCc3c([nH]c4ccccc34)C2c2ccc(Cl)cc2)cc1` (racemic), the EC50 with Plasmodium falciparum [1] was 1250 nM.

`CCOc1ccc([C@@H]2c3[nH]c4ccccc4c3CCN2C(=O)c2cc3cc(F)ccc3o2)cc1`: in the data set with Plasmodium falciparum [1], the EC50 is 123 nM.

For the compound `O=C(c1cc2ccc(Br)cc2o1)N1CCc2c([nH]c3ccccc23)[C@H]1c1ccc(Cl)cc1`, the EC50 with Plasmodium falciparum [1] is 796 nM.

For `CCOc1ccc([C@@H]2c3[nH]c4ccccc4c3CCN2C(=O)c2nc3cc(Br)ccc3o2)cc1`, the EC50 in the data set with Plasmodium falciparum [1] is 770 nM; in the data set with Plasmodium falciparum [2], 937 nM.

As for `C[C@@H]1CC[C@H]2[C@@H](C)C(=O)O[C@@H]3O[C@@]4(C)CC[C@@H]1[C@]32OO4` [ARTEMISININ], the EC50 came to 11 nM in the data set on Plasmodium falciparum [1] and 10 nM in the data set with Plasmodium falciparum [2].

Take `O=C(c1cc2cc(Cl)ccc2o1)N1CCc2c([nH]c3ccccc23)[C@H]1c1ccc(Cl)cc1`: the EC50 came to 173 nM with Plasmodium falciparum [1] and 304 nM in the data set with Plasmodium falciparum [2].
